{"source": "paper PMC8863579", "about": "“Effects of pharmacological inhibition of the sodium‐dependent phosphate cotransporter 2b (NPT2b) on intestinal phosphate absorption in mouse and rat models” (Pharmacology Research & Perspectives, 2022)", "key": {"[1]": {"target": "T1, Human PiT2 (Homo sapiens, UniProt Q08357)", "T1 construct": "Full Length cDNA Cloning and Generation of Cell Lines Over-Expressing Human NPT2a, NPT2c, Pit1, and Pit2; host or cells: CHO-K1, pcDNA3.1(+), constitutive", "T1 sequence (Q08357 1-652)": "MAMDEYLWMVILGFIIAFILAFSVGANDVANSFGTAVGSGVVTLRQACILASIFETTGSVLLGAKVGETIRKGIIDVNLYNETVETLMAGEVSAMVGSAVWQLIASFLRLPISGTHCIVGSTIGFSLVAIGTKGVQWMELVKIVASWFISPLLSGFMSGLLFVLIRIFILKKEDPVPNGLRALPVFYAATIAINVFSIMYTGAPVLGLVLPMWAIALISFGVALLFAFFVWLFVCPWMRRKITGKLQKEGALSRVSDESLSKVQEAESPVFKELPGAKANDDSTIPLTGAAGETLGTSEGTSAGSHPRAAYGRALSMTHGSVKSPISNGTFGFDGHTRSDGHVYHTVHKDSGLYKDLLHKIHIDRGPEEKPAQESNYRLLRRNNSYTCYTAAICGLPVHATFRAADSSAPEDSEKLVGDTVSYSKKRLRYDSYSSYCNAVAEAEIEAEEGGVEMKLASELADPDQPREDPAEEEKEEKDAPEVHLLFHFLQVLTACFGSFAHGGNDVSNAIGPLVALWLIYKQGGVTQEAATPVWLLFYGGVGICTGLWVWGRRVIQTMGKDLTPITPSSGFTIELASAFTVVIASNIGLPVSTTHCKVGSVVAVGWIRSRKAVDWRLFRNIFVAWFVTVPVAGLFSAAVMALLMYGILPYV", "assay": "33P-phosphate uptake in CHO cells over-expressing human PiT2", "format": "cell-based", "method": "T‐Rex™ Chinese Hamster Ovary cells (CHO; Thermo Fisher Scientific) stably expressing human, mouse, or rat NPT2b under a tetracycline‐inducible promoter were generated using standard cDNA transfection and clone selection procedures (see Supporting Information). Cells were plated in 96‐well CytoStar‐T® scintillating microplates and were incubated overnight in growth media plus 100 ng/ml of tetracycline to induce expression of NPT2b. The next day, cells were washed 3 times with 200 µl assay buffer (137 mM NaCl, 5.4 mM KCl, 2.8 mM CaCl2, 1.2 mM MgSO4, and 14 mM Tris‐HCl buffer, pH 7.5). LY3358966 serially diluted 1‐to‐3 in DMSO was added to cells with assay buffer. An equal volume of H3 ^33PO4 (PerkinElmer) in assay buffer supplemented with 5 µM potassium phosphate was then added to initiate radiolabeled phosphate (^33P‐phosphate) uptake. […] The plate was immediately read on a Wallac MicroBeta Trilux liquid scintillation counter. Percent inhibition at all concentrations tested was calculated, and IC50 values were then determined using a 4‐parameter logistic curve fitting equation.\nSimilar methods were used to measure the effects of LY3358966 on other transporters of interest, except that constitutive promoters were used to generate CHO cells over‐expressing human PiT1 and PiT2. The ^33P‐phosphate uptake was measured after 45 min at 20°C for the NPT2a, NPT2c, PiT1, and PiT2 assays. […]"}, "[2]": {"system": "intestinal phosphate absorption", "assay": "Recovery of radiolabeled phosphate in gastrointestinal tract of rats at 4 h", "format": "in vivo, rat", "settings": "LY3358966 10 mg/kg", "method": "Male Sprague Dawley rats, 260–287 g for the first study and 274–362 g for the second study, were fasted for 4 h (the first 4 h of the light cycle) then dosed with placebo, a 50 or 150 mg/kg sevelamer HCl water dispersion, LY3358966 SDD (10 mg/kg API) dissolved in water, or a combination of LY3358966 SDD and sevelamer HCl. Fifteen minutes later, the animals were dosed with radiolabeled phosphate as described above. In the first study, the animals were given free access to food, then feces were collected at 6, 24, and 48 h post radiolabeled phosphate dose. In the second study, the animals were fasted an additional 4 h, then feces, stomach, small intestine, and large intestine were individually collected. The gastrointestinal tract tissues and feces were digested overnight at 37°C in 1 N NaOH, and the recovered radioactivity was determined."}, "[3]": {"assay": "Pharmacokinetic study in mice", "format": "in vivo, mouse", "settings": "for bioavailability: po", "method": "Male CD‐1 male mice were orally dosed with 1, 3, or 10 mg/kg API of LY3358966 SDD dissolved in water or were IV dosed with 1 mg/kg LY3358966 formulated in 25% dimethylacetamide, 15% ethanol, 10% propylene glycol, 25% 2‐pyrrolidone, and 25% water. Each dose group contained six animals. Three animals were bled at 0.25, 0.5, 1, 2, 4, 8, 12, and 24 h, with each animal being bled at alternate time points. Plasma drug levels were determined by HPLC/MS. The unbound fraction of LY3358966 in plasma was determined with equilibrium dialysis and LC‐MS/MS."}, "[4]": {"settings": "across all dose groups, from unbound fraction 0.005"}, "[5]": {"settings": "male, CD-1, mouse, plasma, IV 1 mg/kg"}, "[6]": {"settings": "male, CD-1, mouse, plasma, PO 1 mg/kg"}, "[7]": {"settings": "male, CD-1, mouse, plasma, PO 3 mg/kg"}, "[8]": {"settings": "male, CD-1, mouse, plasma, PO 10 mg/kg"}}, "note": "Several values for one entry are separate records, joined by “and”; a condition that tells them apart may be missing. Equal values may be shown once. Read-outs that look alike come from different tables or passages of the source.", "data": [{"smiles": "CC1(C)CN(C(=O)NCCCCO)CCN1Cc1cccc(C(=O)Nc2sc3c(c2C(=O)Nc2cc(F)c(CCc4ccc(C(=O)O)cc4)c(F)c2)CCCC3)c1", "note": "[LY3358966, 4‐[2‐[2,6‐difluoro‐4‐[[2‐[[3‐[[4‐(4‐hydroxybutylcarbamoyl)‐2,2‐dimethyl‐piperazin‐1‐yl]methyl]benzoyl]amino]‐4,5,6,7‐tetrahydrobenzothiophene‐3‐carbonyl]amino]phenyl]ethyl]benzoic acid]", "values": [{"measurement": "IC50", "setting": "[1]; 45 min at 20°C", "value": "> 100", "unit": "µM"}, {"measurement": "Selectivity", "setting": "[1]; ratio of IC50 of human PiT2 assay to that of human NPT2b assay", "value": ">3086"}, {"measurement": "increase of 33P-phosphate recovery in the gastrointestinal tract over vehicle", "setting": "[2]; 4 h", "value": 6.34, "unit": "%"}, {"measurement": "33P Recovered in G.I. Tract, Large Intestine (means ± SEM)", "setting": "[2]; 4 hours", "value": "13.75 ± 2.83", "unit": "%"}, {"measurement": "33P Recovered in G.I. Tract, Small Intestine (means ± SEM)", "setting": "[2]; 4 hours", "value": "15.51 ± 2.37", "unit": "%"}, {"measurement": "33P Recovered in G.I. Tract, Stomach (means ± SEM)", "setting": "[2]; 4 hours", "value": "1.83 ± 0.41", "unit": "%"}, {"measurement": "33P Recovered in Total G.I. Tract (means ± SEM)", "setting": "[2]; 4 hours, 10 mg/kg", "value": "31.09% and 31.09 ± 1.38%"}, {"measurement": "C max of unbound LY3358966", "setting": "[3]; [4]", "value": "< 1", "unit": "nM"}, {"measurement": "plasma AUC of unbound LY3358966", "setting": "[3]; [4]", "value": "< 0.002", "unit": "µM·h"}, {"measurement": "AUC", "setting": "[3]; [5]", "value": 0.323, "unit": "µM·h"}, {"measurement": "half-life", "setting": "[3]; [5]", "value": 300, "unit": "min"}, {"measurement": "Cmax", "setting": "[3]; [6]", "value": 25, "unit": "nM"}, {"measurement": "Tmax", "setting": "[3]; [6]", "value": 24, "unit": "min"}, {"measurement": "AUC", "setting": "[3]; male, CD-1, mouse, plasma, PO 1 mg/kg, SDD dissolved in water", "value": 0.039, "unit": "µM·h"}, {"measurement": "Cmax", "setting": "[3]; [7]", "value": 50, "unit": "nM"}, {"measurement": "Tmax", "setting": "[3]; [7]", "value": 24, "unit": "min"}, {"measurement": "AUC", "setting": "[3]; male, CD-1, mouse, plasma, PO 3 mg/kg, SDD dissolved in water", "value": 0.096, "unit": "µM·h"}, {"measurement": "Cmax", "setting": "[3]; [8]", "value": 83, "unit": "nM"}, {"measurement": "Tmax", "setting": "[3]; [8]", "value": 24, "unit": "min"}, {"measurement": "AUC", "setting": "[3]; male, CD-1, mouse, plasma, PO 10 mg/kg, SDD dissolved in water", "value": 0.284, "unit": "µM·h"}, {"measurement": "bioavailability", "setting": "[3]; male, CD-1, mouse, plasma, 1 mg/kg, PO 1 mg/kg, read-out: F (bioavailability)", "value": 12, "unit": "%"}, {"measurement": "bioavailability", "setting": "[3]; male, CD-1, mouse, plasma, 3 mg/kg, PO 3 mg/kg, read-out: F (bioavailability)", "value": 10, "unit": "%"}, {"measurement": "bioavailability", "setting": "[3]; male, CD-1, mouse, plasma, 10 mg/kg, PO 10 mg/kg, read-out: F (bioavailability)", "value": 9, "unit": "%"}, {"measurement": "bioavailability", "setting": "[3]; male, CD-1, mouse, plasma, 10 mg/kg, PO 1, 3 and 10 mg/kg, read-out: oral bioavailability F", "value": "9 to 12", "unit": "%"}]}]}
